Assay results published in the supplement of paper PMC10307832.

Key:
Assay in all cases: relative viability (nuclei count vs DMSO), 5 days (fraction); higher = more cells survive
[1] = compound: O=C(CCCCCCC(=O)Nc1ccccc1)NO [Vorinostat] + CCNC(=O)c1noc(-c2cc(C(C)C)c(O)cc2O)c1-c1ccc(CN2CCOCC2)cc1 [Luminespib] (partner 0.01 µM)
Method in brief: (§1)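 Cells from lung cancer lines were seeded into 1536-well plates and, one day later, dosed by pin tool. Treatments were either a single drug or a fixed dose of an anchor drug with five library-drug doses (not always all listed) in √10 steps. After 5 days, nuclei were stained in a one-step fixation (final 0.05% Triton X-100, 1% formaldehyde, 1 ug/ml Hoechst) and counted on 4× images, and relative viability is the treated-to-vehicle nuclei ratio, as the median of duplicate plates.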

[2] = compound: O=C(CCCCCCC(=O)Nc1ccccc1)NO [Vorinostat] + COc1cccc2cc(-c3nc([C@H]4CC[C@H](C(=O)O)CC4)n4ncnc(N)c34)[nH]c12 [OSI-027] (partner 0.5 µM)
Method in brief: as §1

[3] = compound: O=C(CCCCCCC(=O)Nc1ccccc1)NO [Vorinostat] + CS(=O)(=O)N1CCN(Cc2cc3nc(-c4cccc5[nH]ncc45)nc(N4CCOCC4)c3s2)CC1 [Pictilisib] (partner 1 µM)
Method in brief: as §1

[4] = compound: O=C(CCCCCCC(=O)Nc1ccccc1)NO [Vorinostat] + N=C(N)NC(=N)NCCc1ccccc1 [Phenformin] (partner 250 µM)
Method in brief: as §1

[5] = compound: O=C(CCCCCCC(=O)Nc1ccccc1)NO [Vorinostat] + O=C(c1cc(Cc2n[nH]c(=O)c3ccccc23)ccc1F)N1CCN(C(=O)C2CC2)CC1 [Olaparib] (partner 8 µM)
Method in brief: as §1

Row | Cell Line | relative viability ([1]; first compound 0.253 µM) | relative viability ([1]; first compound 0.8 µM) | relative viability ([1]; first compound 2.53 µM) | relative viability ([1]; first compound 8 µM) | relative viability ([2]; first compound 0.253 µM) | relative viability ([2]; first compound 0.8 µM) | relative viability ([2]; first compound 2.53 µM) | relative viability ([2]; first compound 8 µM) | relative viability ([3]; first compound 0.253 µM) | relative viability ([3]; first compound 0.8 µM) | relative viability ([3]; first compound 2.53 µM) | relative viability ([3]; first compound 8 µM) | relative viability ([4]; first compound 0.253 µM) | relative viability ([4]; first compound 0.8 µM) | relative viability ([4]; first compound 2.53 µM) | relative viability ([4]; first compound 8 µM) | relative viability ([5]; first compound 0.253 µM) | relative viability ([5]; first compound 0.8 µM) | relative viability ([5]; first compound 2.53 µM) | relative viability ([5]; first compound 8 µM)
1 | SW 1573 | 0.212 | 0.381 | 0.222 | 0.0808 | 1.1 | 0.633 | 0.183 | 0.051 | 0.543 | 0.45 | 0.24 | 0.0767 | 0.613 | 0.556 | 0.355 | 0.0821 | 0.745 | 0.399 | 0.212 | 0.0539
2 | NCI-H460 | 0.0445 | 0.0295 | 0.0322 | 0.0199 | 0.821 | 0.484 | 0.0397 | 0.0148 | 0.37 | 0.279 | 0.208 | 0.0481 | 0.611 | 0.4 | 0.0276 | 0.016 | 0.396 | 0.175 | 0.064 | 0.0336
3 | NCI-H1703 | – | – | – | – | – | – | – | – | 0.31 | 0.233 | 0.363 | 0.2 | – | – | – | – | 0.407 | 0.51 | 0.625 | 0.157
4 | HCC-366 | – | – | – | – | 0.979 | 0.432 | 0.146 | 0.0279 | 0.132 | 0.191 | 0.0894 | 0.037 | 0.689 | 0.605 | 0.338 | 0.0385 | 0.249 | 0.116 | 0.0308 | 0.0193
5 | HCC-15 | 0.526 | 0.565 | 0.361 | 0.148 | 0.698 | 0.487 | 0.269 | 0.0848 | 0.811 | 0.608 | 0.472 | 0.108 | 0.609 | 0.473 | 0.22 | 0.0895 | 0.672 | 0.631 | 0.35 | 0.106
6 | NCI-H520 | 0.209 | 0.213 | 0.212 | 0.195 | 0.361 | 0.265 | 0.204 | 0.217 | 0.369 | 0.213 | 0.21 | 0.146 | 0.717 | 0.482 | 0.374 | 0.164 | 0.299 | 0.264 | 0.184 | 0.116
7 | HCC-78 | – | – | – | – | 0.346 | 0.32 | 0.224 | 0.234 | 0.25 | 0.128 | 0.117 | 0.134 | 0.719 | 0.58 | 0.292 | 0.22 | 0.778 | 0.615 | 0.221 | 0.201
8 | NCI-H1563 | 0.587 | 0.496 | 0.433 | 0.416 | 0.787 | 0.692 | 0.577 | 0.549 | 0.682 | 0.637 | 0.68 | 0.592 | 0.771 | 0.727 | 0.556 | 0.492 | – | – | – | –
9 | NCI-H522 | 1.44 | 0.972 | 0.361 | 0.259 | 0.8 | 0.617 | 0.591 | 0.247 | – | – | – | – | 0.728 | 0.593 | 0.602 | 0.252 | 0.778 | 0.654 | 0.318 | 0.168
10 | A549 | – | – | – | – | – | – | – | – | 0.601 | 0.4 | 0.0772 | 0.0417 | 0.17 | 0.168 | 0.0474 | 0.0242 | 0.278 | 0.177 | 0.0609 | 0.0236
